Experiment: xn = mol fraction of the nth substance listed
Conditions: 101.3 kPa, Liquid; for viscosity: Capillary tube (Ostwald / Ubbelohde) method; for mass density: Pycnometric method

OCc1ccccc1 [benzenemethanol] + CN(C)C=O
Conditions | mass density, 298.15 K [kg/m3] | mass density, 303.15 K [kg/m3] | mass density, 308.15 K [kg/m3] | mass density, 313.15 K [kg/m3] | viscosity, 298.15 K [mPa·s] | viscosity, 303.15 K [mPa·s] | viscosity, 308.15 K [mPa·s] | viscosity, 313.15 K [mPa·s]
x2 = 0 | 1041.3 | 1037.5 | 1033.7 | 1029.4 | 5.16 | 4.67 | 4.004 | 3.52
x2 = 0.1088 | 1036.1 | 1032.3 | 1028.5 | 1024.3 | 4.473 | 4.06 | 3.51 | 3.106
x2 = 0.1712 | 1032.5 | 1028.7 | 1024.9 | 1020.6 | 4.011 | 3.648 | 3.17 | 2.817
x2 = 0.3055 | 1022.7 | 1018.8 | 1014.9 | 1010.6 | 3.14 | 2.87 | 2.517 | 2.26
x2 = 0.4003 | 1014.8 | 1010.8 | 1006.8 | 1002.4 | 2.59 | 2.378 | 2.1 | 1.9
x2 = 0.5393 | 1001.3 | 997.2 | 993.1 | 988.7 | 2.02 | 1.86 | 1.67 | 1.52
x2 = 0.5865 | 996.1 | 992 | 987.9 | 983.4 | 1.85 | 1.71 | 1.541 | 1.411
x2 = 0.717 | 980.7 | 976.4 | 972.1 | 967.6 | 1.44 | 1.335 | 1.218 | 1.127
x2 = 0.7962 | 970.3 | 965.9 | 961.5 | 956.9 | 1.23 | 1.146 | 1.054 | 0.982
x2 = 0.8972 | 957.6 | 953.1 | 948.7 | 944 | 1.001 | 0.938 | 0.872 | 0.819

Reference: the NIST ThermoML archive (doi:10.1021/je030163d)
